Counter-ions that a name gives are not always drawn.

Among the data in patent US7309702B2, “Arylpiperazines having activity at the serotonin 1A receptor” (Avera Pharmaceuticals, Inc., priority 1997, dated 2007) are melting point values, retold here.

As usually defined, the melting point is the temperature, or range, at which the solid turns liquid. Take `COc1ccccc1N1CCN(CCC(C(=O)C2CCCCCC2)c2ccccc2)CC1` (centres unmarked) (as salt: hydrochloride) [Example 6, 1-(2-methoxyphenyl)-4-[3-(cycloheptanecarbonyl)-3-(phenyl)propyl]piperazine dihydrochloride]: the melting point lay within 193 to 194 °C.

Regarding `COc1ccccc1N1CCN(CCC(C(=O)C2CCCC2)c2ccccc2)CC1` (centres unmarked) (as salt: hydrochloride) [Example 7, 1-(2-methoxyphenyl)-4-[3-(cyclopentanecarbonyl)-3-(phenyl)propyl]piperazine dihydrochloride], the melting point lay in the range of 210 to 212 °C.

`COc1ccccc1N1CCN(CCC(C(=O)c2ccccc2)c2ccccc2)CC1.O=C(O)C(=O)O` (centres unmarked) [Example 1, 1-(2-methoxyphenyl)-4-[3-(benzoyl)-3-(phenyl)propyl]piperazine Oxalate]: the melting point was in the range of 161 to 163 °C.

Take `COc1ccccc1N1CCN(CCC(C(=O)C2CCCCC2)c2ccccc2)CC1.O=C(O)C(=O)O` (centres unmarked) [Example 2, 1-(2-methoxyphenyl)-4-[3-(cyclohexanecarbonyl)-3-(phenyl)propyl]piperazine oxalate]: the melting point is 149 to 151 °C.

Compound `O=C(C1CCCCC1)C(CCN1CCN(c2ccccn2)CC1)c1ccccc1.O=C(O)C(=O)O` (centres unmarked) [Example 3, 1-(2-pyridyl)-4-[3-(cyclohexanecarbonyl)-3-(phenyl)propyl]piperazine oxalate] had a melting point of 185 to 187 °C.

With `COc1ccccc1N1CCN(CCC(C)(C(=O)c2ccccc2)c2ccccc2)CC1.O=C(O)C(=O)O` (centres unmarked) [Example 5, 1-(2-methoxyphenyl)-4-[3-(benzoyl)-3-(phenyl)butyl]piperazine oxalate], the melting point was 192 to 193 °C.

`COc1ccccc1N1CCN(CCC(c2ccccc2)C(O)C2CCCCC2)CC1.O=C(O)C(=O)O` (centres unmarked) [Example 8, 1-(2-methoxyphenyl)-4-[4-(cyclohexyl)-4-(hydroxy)-3-(phenyl)butyl]piperazine oxalate]: the melting point was 100 to 102 °C.

In the case of `COc1ccccc1N1CCN(CCC(C)(C(=O)C2CCCCC2)c2ccccc2)CC1` (centres unmarked) [Example 9, 1-(2-methoxyphenyl)-4-[3-(cyclohexanecarbonyl)-3-(phenyl)butyl]piperazine], the melting point turned out to be 192.81 °C.
